Measured values published in patent publication US20240294488A1, “ISOTOPOLOGES, SALTS, CRYSTALLINE FORMS, STEREOISOMERS, OF METHYLONE AND ETHYLONE AND METHODS OF USE THEREOF” (Terran Biosciences Inc., priority 2021, published 2024).
Counter-ions that a name gives are not always drawn.

Tests used:
[1] = Metabolic stability in human liver microsomes; type: in vitro ADME; settings: pooled liver microsomes, pH 7.4; human liver microsomes 0.5 mg/mL, 1 μM compound, NADPH, 0-45 min
Method: Pooled liver microsomes are purchased from a reputable commercial supplier. Microsomes are stored at […] prior to use. Microsomes (final protein concentration 0.5 mg/mL), 0.1 M phosphate buffer pH 7.4 and test compound (final substrate concentration 1 μM; final DMSO concentration 0.25%) are preincubated at 37° C. prior to the addition of NADPH (final concentration 1 mM) to initiate the reaction. A minus cofactor control incubation is included for each compound tested where 0.1 M phosphate buffer pH 7.4 is added instead of NADPH (minus NADPH). Two control compounds are included with each species. All incubations are performed singularly for each test compound. Each compound is incubated for 0, 5, 15, 30 and 45 min. The control (minus NADPH) is incubated for 45 min only. The reactions are stopped by transferring incubate into acetonitrile at the appropriate time points, in a 1:3 ratio. The termination plates are centrifuged at 3,000 rpm for 20 min at 4° C. to precipitate the protein.
From a plot of ln peak area ratio (compound peak area/internal standard peak area) against time, the gradient of the line is determined. Subsequently, half-life and intrinsic clearance are calculated using the equations below:
where V=Incubation volume (μL)/Microsomal protein (mg)
Relevant control compounds were assessed, ensuring intrinsic clearance values fall within the specified limits (if available).

Sprague-Dawley rats = experiment: Rat elevated zero maze model of anxiety; type: in vivo; settings: for time spent in the open arms / frequency of stretched attend postures (SAPs): 30 min pretest, 5-min test; for time spent in the open arms: vs vehicle; for anxiogenic effect: across doses tested (2.5-30 mg/kg ip); for anxiolytic effect: at a sufficient dose
Description: The rat zero-maze model is a refined alternative to the plus-maze, the most widely used animal model of anxiety, and consists of an elevated annular platform, divided equally into four quadrants. Two opposite quadrants are enclosed by Perspex walls on both the inner and the outer edges of the platform, while the remaining two opposite quadrants are open being enclosed only by a Perspex “lip”. Animals will show a preference for the closed areas, and avoidance of the open sections is assumed to stem from a rodent's natural aversion to open, exposed spaces. The primary index of anxiety, which reflect changes in open arm preference, is the percentage of time spent on the open areas. A reduction in the amount of activity on the open areas is considered to reflect an increase in anxiety. Other, ethologically-based behaviours are also assessed as indices of anxiety. One of the most important is stretched attend postures (SAP) from closed to open quadrants. […] Shepherd, J K; et al., (1994) Behavioural and pharmacological validation of the elevated “zero-maze” as an animal model of anxiety. Psychopharmacol., 116:56-64.
Male Sprague-Dawley 200-250 g (Envigo UK) rats were used. Animals were group-housed (5 per cage; cage size: 40×40×20 cm) in a temperature-controlled environment (22±2° C.), under a 12 h light-dark cycle (lights on: 08:00 hours) for one week prior to testing. Food and water were freely available. Number of animals per group=5. Animals were moved into the experimental room 16-24 hours before testing.
The elevated 0-maze comprises a black Perspex annular platform (105 cm diameter, 10 cm width) elevated to 65 cm above ground level, divided equally into four quadrants. Two opposite quadrants are enclosed by clear red Perspex walls (27 cm high) on both the inner and outer edges of the platform, while the remaining two opposite quadrants are surrounded only by a Perspex “lip” (1 cm high) which serves as a tactile guide to animals on these open areas.
Subjects were weighed and tail marked before being injected. After a specified pretreatment time, subjects were placed in a closed quadrant and a 5-min test period were recorded on videotape for subsequent analysis. The maze were cleaned with 5% methanol/water solution and dried thoroughly between test sessions. Behavioural measures comprise percentage time spent on the open areas (% TO) and frequency of stretched attend postures (SAP) from closed to open quadrants. Since the control groups were all treated identically with the same vehicle these were combined to increase power. The Chlordiazepoxide groups were also treated identically with the same dose so these were also combined to increase power. Animals are scored as being in the open area when all four paws were in an open quadrant and in the closed area only when all four paws have passed over the open-closed divide. All testing were carried out between 9.00 and 16.00 hours.
Drug Versus Vehicle Treatments For each study, a 1-way ANOVA was conducted across vehicle, CDP, and drug treatment groups. Each group was compared to the vehicle group and a p-value for treatment determined by Fishers Least Significant Difference (LSD) test. This analysis was performed in GraphPad Prism (Version 9).Formulations: […]
Intraperitoneal (IP): Racemic methylone HCl was formulated in Vehicle 1 (Saline) for injection to concentrations of 1, 3 and 6 mg/mL to provide doses of 5, 15 and 30 mg/kg when administered ip in 5 mL/kg dosing volumes.
Intraperitoneal (IP): S-methylone HCl was formulated in Vehicle 1 (Saline) for injection to concentrations of 0.5, 1, 1.5, 3 and 6 mg/mL to provide doses of 2.5, 5, 7.5, 15 and 30 mg/kg when administered ip in 5 mL/kg dosing volumes.
Intraperitoneal (IP): R-methylone HCl was formulated in Vehicle 1 (Saline) for injection to concentrations of 1, 3 and 6 mg/mL to provide doses of 5, 15 and 30 mg/kg when administered ip in 5 mL/kg dosing volumes. […]

[2] = 30 mg/kg ip vs chlordiazepoxide 6 mg/kg ip

SMILES	half-life at 1 μM [1]	microsomal CLint at 1 μM [1]	time spent in the open arms (Sprague-Dawley rats; 5 mg/kg ip)	decrease in SAPs compared with chlordiazepoxide (Sprague-Dawley rats; 15 mg/kg ip vs chlordiazepoxide 6 mg/kg ip)	frequency of stretched attend postures (SAPs) (Sprague-Dawley rats; 15 mg/kg ip)	time spent in the open arms (Sprague-Dawley rats; 15 mg/kg ip)	frequency of stretched attend postures (SAPs) (Sprague-Dawley rats; 30 mg/kg ip)	time spent in the open arms (Sprague-Dawley rats; 30 mg/kg ip)	anxiogenic effect (Sprague-Dawley rats)	anxiolytic effect (Sprague-Dawley rats)	decrease in SAPs compared with chlordiazepoxide (Sprague-Dawley rats; [2])	time spent in the open arms compared with chlordiazepoxide (Sprague-Dawley rats; [2])	frequency of SAPs, dose dependence (Sprague-Dawley rats; 5, 15 and 30 mg/kg ip)	time spent in the open arms, dose dependence (Sprague-Dawley rats; 5, 15 and 30 mg/kg ip)	frequency of stretched attend postures (SAPs) (Sprague-Dawley rats; 2.5 mg/kg ip)	frequency of stretched attend postures (SAPs) (Sprague-Dawley rats; 5 mg/kg ip)	frequency of stretched attend postures (SAPs) (Sprague-Dawley rats; 7.5 mg/kg ip)	time spent in the open arms (Sprague-Dawley rats; 7.5 mg/kg ip)
CNC(C)C(=O)c1ccc2c(c1)OCO2 (racemic) [(rac)-Methylone Hydrochloride, 3,4-methylenedioxy-N-methylcathinone hydrochloride]	2.62 h	8.84 µL/min/mg	a decrease in time spent in the open arms vs placebo	not as effective as chlordiazepoxide	dose dependent decrease in SAPs	no difference from placebo	a decrease in SAPs	a significant decrease in time spent in the open arms	show anxiogenic effects at lower doses	effective anxiolytics	–	–	–	–	–	–	–	–
CN[C@H](C)C(=O)c1ccc2c(c1)OCO2 [(R)-Methylone Hydrochloride, (R)-1-(Benzo[d][1,3]dioxol-5-yl)-2-(methylamino)propan-1-one Hydrochloride]	3.38 h	6.82 µL/min/mg	–	–	–	–	significantly decreasing SAPs	–	did not show any anxiogenic effect at any dose	effective anxiolytics	to the same level as chlordiazepoxide	as effective as chlordiazepoxide	dose dependent decrease in SAPs	dose dependent increase in time spent in the open arms	–	–	–	–
CN[C@@H](C)C(=O)c1ccc2c(c1)OCO2 [(S)-Methylone Hydrochloride, (S)-1-(Benzo[d][1,3]dioxol-5-yl)-2-(methylamino)propan-1-one Hydrochloride]	2.28 h	10.1 µL/min/mg	the time spent in the open arms decreased as the dose increased	–	dose dependent decrease in SAPS	the time spent in the open arms decreased as the dose increased	dose dependent decrease in SAPS	the time in the open arms increased	show anxiogenic effects at lower doses	effective anxiolytics	even more effective than chlordiazepoxide	as effective as chlordiazepoxide	–	–	dose dependent increase in SAPs	dose dependent increase in SAPs	dose dependent decrease in SAPS	the time spent in the open arms decreased as the dose increased
